Here are results for one compound from patent US20090221530A1, “Relaxase Modulators and Methods of Using Same” (priority 2005, published 2009).

Where two headings read alike, the source gives them in different places.

Assay [1] deals with DNA conjugation from F+ (JS10) cells to F− (JS4) cells. In words: Mating assay (conjugative DNA transfer). The assay is classed as cell-based, E. coli. Conditions: Escherichia coli, F+ (JS10) donors to F− (JS4) recipients; FIG. 4D; read-out: EC50 of inhibition of DNA conjugation. As to the method:
Mating assays were performed as described (Matson et al., 2001). Briefly, the donor strain JS10 contains pOX38T, a mini-F-plasmid capable of conjugative transfer, which also carries a Tet resistance gene, while the recipient strain JS4 is F− and Str^r. Donor and recipient strains from saturated overnight cultures grown under antibiotic selection were diluted 1:50 into LB and grown to an OD600 of approximately 0.6 in the absence of selection at 37° C. Donors and recipients were then mixed at a ratio of one donor to nine recipients in the presence of the desired concentrations of pNp (e.g., 10, 100 μM, 1, 10 mM) and incubated at 37° C. for five minutes. Following this incubation, the mating mixtures were diluted 1:10 into LB containing the desired concentration of pNp and incubated for a further 30 minutes. Following mating, the mixtures were vortexed to disrupt mating pairs and serially diluted into 0.9% sterile saline. Dilutions, predicted to result in 300-500 colonies on positive control plates, were plated on LB-agar plates containing both streptomycin and tetracycline in order to select for transconjugants and counter select for donors and unmated recipients. Eight replicate samples of each final dilution were plated, the colony counts culled for outliers at 95% confidence, and then averaged.

For the next assay, the system named is F+ donor cells. Briefly: microbe, parasite or virus in culture. The assay is classed as cell-based, E. coli. The note with it: for EC50: Escherichia coli, 100 min, vs. F+ donor cells, read-out: 100 minute EC50; for Selectivities by EC50, Transconj.: listed as vs. F+ donor cells relative to transconjugants. The text has this:
A 96-well fluorescence-based assay using oxygen biosensor plates (Becton Dickinson, Franklin Lakes, N.J., U.S.A.) was employed to monitor bacterial cell survival. FIG. 7 schematically illustrates the assay mechanism of action. […] In the absence of viable bacteria, however, no fluorescence emission is detected because the fluorophore is quenched by free oxygen. The assay can further be utilized to measure conjugative DNA transfer.
Relaxase-dependent cell survival was examined by placing cultures of F+/TraI+ E. coli cells (with antibiotic resistance, e.g., Ab^r1, on a non-conjugative plasmid) within wells and exposing them to putative inhibitory compounds. […] Negative controls for this assay can be F− (Ab^r2) cells and F+ cells (Ab^r1) containing either no F plasmid relaxase (TraI) gene, or a TraI harboring catalytic tyrosine to phenylalanine mutations; in both cases, these control cells should be resistant to relaxase-dependent cell toxicity. […] Fluorescence can be measured using a PHERASTAR™ fluorescence plate reader (BMG LABTECH, Offenburg, Germany) over 8 hours time.

Usually EC50 stands for the concentration at which the effect is half-maximal. For the compound `O=P(O)(O)NP(=O)(O)O` [pNp, imidodiphosphate], the EC50 in assay [1] is around 10 µM; with F+ donor cells (first EC50 block, mass concentration), 0.063 µg/mL; in the assay on F+ donor cells (first EC50 block), 0.356 µM; in the assay with F+ donor cells (second block, mass concentration), 8000 µg/mL; with F+ donor cells (second block), 43000 µM. For the same compound, the “Selectivities by EC50, Transconj.” value is on record as 6.7E−02 in the assay with F+ donor cells (first EC50 block) and 4.9E+00 in the assay on F+ donor cells (second block).
